Test results as given in ChEMBL document CHEMBL1136440, “Design and synthesis of novel RXR-selective modulators with improved pharmacological profile” (Bioorg Med Chem Lett, 2003).
Several values for one entry are separate records, joined by “and”; a condition that tells them apart may be missing. Equal entries are not always repeated.

Assays:
[1] = Cmax value in IRC mice; type: ADME, organism-based; conditions: mouse, in vivo; further: test concentration or dose not given here
[2] = biological target: T1, Retinoic acid receptor RXR-alpha (Homo sapiens, UniProt P19793); test: In vitro antagonist activity against RXR alpha in CV-1 cells; type: functional, cell-based, Cercopithecidae
T1 sequence (P19793 whole entry): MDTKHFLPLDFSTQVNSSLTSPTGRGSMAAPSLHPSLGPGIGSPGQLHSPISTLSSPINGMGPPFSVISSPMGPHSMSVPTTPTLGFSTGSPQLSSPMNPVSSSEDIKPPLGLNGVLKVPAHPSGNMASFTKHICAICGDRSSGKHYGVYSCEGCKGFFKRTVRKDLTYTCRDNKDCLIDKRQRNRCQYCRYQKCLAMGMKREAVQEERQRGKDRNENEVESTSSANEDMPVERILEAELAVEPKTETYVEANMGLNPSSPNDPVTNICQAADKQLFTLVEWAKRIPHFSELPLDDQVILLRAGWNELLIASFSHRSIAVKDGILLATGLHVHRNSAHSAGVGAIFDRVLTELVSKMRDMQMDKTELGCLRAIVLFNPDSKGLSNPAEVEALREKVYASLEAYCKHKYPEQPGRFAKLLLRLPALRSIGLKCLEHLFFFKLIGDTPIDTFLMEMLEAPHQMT

[3] = biological target: T2, Retinoic acid receptor RXR-beta (Homo sapiens, UniProt P28702); test: Displacement of [3H]9-cis-RA from RXR beta receptor in CV-1 cells; type: cell-based, Cercopithecidae
T2 sequence (P28702 whole entry): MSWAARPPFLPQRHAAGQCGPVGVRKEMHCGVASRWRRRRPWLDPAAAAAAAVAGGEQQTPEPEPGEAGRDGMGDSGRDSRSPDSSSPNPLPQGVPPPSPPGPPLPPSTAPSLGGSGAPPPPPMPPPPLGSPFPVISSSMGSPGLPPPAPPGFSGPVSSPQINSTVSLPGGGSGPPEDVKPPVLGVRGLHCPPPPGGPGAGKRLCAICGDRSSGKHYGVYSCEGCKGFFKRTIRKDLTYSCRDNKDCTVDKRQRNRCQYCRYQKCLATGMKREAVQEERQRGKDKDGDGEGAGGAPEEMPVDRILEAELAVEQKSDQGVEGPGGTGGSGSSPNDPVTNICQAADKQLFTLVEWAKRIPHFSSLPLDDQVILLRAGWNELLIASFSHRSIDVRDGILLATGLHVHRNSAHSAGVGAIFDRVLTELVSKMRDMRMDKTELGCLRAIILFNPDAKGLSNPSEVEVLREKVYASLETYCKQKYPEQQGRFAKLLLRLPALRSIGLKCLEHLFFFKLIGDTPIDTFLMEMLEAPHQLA

[4] = biological target: T3, Retinoic acid receptor alpha (Homo sapiens, UniProt P10276); test: Binding affinity against RAR alpha receptor using [3H]ATRA as radioligand in CV-1 cells; type: cell-based, Cercopithecidae
T3 sequence (P10276 whole entry): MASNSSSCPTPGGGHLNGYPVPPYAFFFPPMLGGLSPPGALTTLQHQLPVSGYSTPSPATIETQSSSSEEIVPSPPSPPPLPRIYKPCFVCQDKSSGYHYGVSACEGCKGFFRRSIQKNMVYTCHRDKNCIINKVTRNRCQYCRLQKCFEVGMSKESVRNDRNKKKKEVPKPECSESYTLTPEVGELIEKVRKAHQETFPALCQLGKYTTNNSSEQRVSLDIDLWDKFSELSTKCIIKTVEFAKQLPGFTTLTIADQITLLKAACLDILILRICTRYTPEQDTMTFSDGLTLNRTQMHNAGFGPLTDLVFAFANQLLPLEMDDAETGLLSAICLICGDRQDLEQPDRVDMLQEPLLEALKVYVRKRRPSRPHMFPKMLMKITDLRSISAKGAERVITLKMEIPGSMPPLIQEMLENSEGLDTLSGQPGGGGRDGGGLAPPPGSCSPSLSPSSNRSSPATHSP

[5] = biological target: T4, Retinoic acid receptor gamma (Homo sapiens, UniProt P13631); test: Binding affinity against RAR gamma receptor using [3H]ATRA as radioligand in CV-1 cells; type: cell-based, Cercopithecidae
T4 sequence (P13631 whole entry): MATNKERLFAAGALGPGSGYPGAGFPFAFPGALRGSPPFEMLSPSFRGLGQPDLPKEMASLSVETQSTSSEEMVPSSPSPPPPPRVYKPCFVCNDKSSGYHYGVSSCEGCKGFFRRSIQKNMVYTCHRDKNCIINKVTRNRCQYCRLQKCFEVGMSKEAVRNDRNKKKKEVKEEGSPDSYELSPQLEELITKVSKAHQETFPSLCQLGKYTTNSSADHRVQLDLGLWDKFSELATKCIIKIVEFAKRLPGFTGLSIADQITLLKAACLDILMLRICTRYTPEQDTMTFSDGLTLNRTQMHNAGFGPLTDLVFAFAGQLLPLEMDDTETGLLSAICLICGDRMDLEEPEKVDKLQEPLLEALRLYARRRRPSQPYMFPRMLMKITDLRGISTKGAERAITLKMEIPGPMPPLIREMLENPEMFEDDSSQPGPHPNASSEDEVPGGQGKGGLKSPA

[6] = biological target: T5, Peroxisome proliferator-activated receptor gamma (Homo sapiens, UniProt P37231)
T5 sequence (P37231 whole entry): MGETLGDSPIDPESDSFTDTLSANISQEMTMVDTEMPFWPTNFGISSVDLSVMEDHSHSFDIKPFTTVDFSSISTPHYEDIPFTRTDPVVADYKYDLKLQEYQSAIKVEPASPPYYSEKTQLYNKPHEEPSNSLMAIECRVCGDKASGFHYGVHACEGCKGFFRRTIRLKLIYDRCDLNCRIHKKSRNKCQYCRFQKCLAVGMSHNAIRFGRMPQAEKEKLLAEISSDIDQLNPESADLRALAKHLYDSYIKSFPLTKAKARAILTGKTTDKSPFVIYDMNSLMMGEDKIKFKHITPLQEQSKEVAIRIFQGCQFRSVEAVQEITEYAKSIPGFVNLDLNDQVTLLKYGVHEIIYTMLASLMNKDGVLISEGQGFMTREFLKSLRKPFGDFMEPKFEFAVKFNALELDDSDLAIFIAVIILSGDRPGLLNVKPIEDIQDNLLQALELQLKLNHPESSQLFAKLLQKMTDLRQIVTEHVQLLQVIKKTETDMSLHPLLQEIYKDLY
Description: In vitro agonistic activity against PPAR gamma along with 100 nM BRL-49653

[7] = biological target: T1, Retinoic acid receptor RXR-alpha; test: In vitro agonistic activity against RXR alpha in CV-1 cells; type: functional, cell-based, Cercopithecidae

## C/C(=C/C=C/C(C)=C/C(=O)O)c1cc(-c2ccccc2F)cc(C(C)C)c1OCC(F)F
[1]
  Cmax: 4140 ng/mL and 9.31 µM
[2]
  IC50: 3.1 nM
[3]
  Ki: 16 nM
[4]
  Ki: 6760 nM
[5]
  Ki: 8760 nM
[6]
  EC50: 0.4 nM

## CCOc1c(\C(C)=C/C=C/C(C)=C/C(=O)O)cc(C(F)(F)C(F)(F)F)cc1C(C)C
[1]
  Cmax: 4430 ng/mL and 10.2 µM
[2]
  IC50: 5.3 nM
[7]
  EC50: 92 nM
[3]
  Ki: 8.5 nM
[4]
  Ki: > 10000 nM
[5]
  Ki: > 10000 nM
[6]
  EC50: 0.7 nM
